The target of the test is TNFα trimer (Homo sapiens, UniProt P01375). Put plainly: TNFα FP Competitive Binding Assay. The gist of the method: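 Compounds, 12-point 1:3 dilutions topping at 100 μM (2.0% DMSO) or 338 μM (3.4% DMSO) final, compete with 1 nM fluorescent probe for 20 nM TNFα trimer in HEPES/NaCl/EDTA/Triton buffer. After 18-24 h incubation at 37 °C plus 1 h rt equilibration, background-subtracted polarization is read and fitted with variable slope.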

Setting [1] is: TNFα FP competitive binding assay, class symbols A/B/C, read-out: TNF IC50.
Setting [2] is: fluorescence polarization competition, 20 nM TNFα trimer, 1 nM OregonGreen488 probe, read-out: TNF IC50 (TNFα FP binding assay IC50).

Broadly, the IC50 is the midpoint of a concentration-inhibition curve.

Read-outs that look alike come from different tables or passages of the source. A value given as a limit tells only on which side of the number the result lay.

TNFα trimer, sequence (P01375 77-233 limits assumed): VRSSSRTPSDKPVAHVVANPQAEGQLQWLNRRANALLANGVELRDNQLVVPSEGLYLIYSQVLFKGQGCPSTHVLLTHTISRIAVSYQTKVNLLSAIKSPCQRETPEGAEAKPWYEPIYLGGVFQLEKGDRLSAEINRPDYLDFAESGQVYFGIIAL

Regarding `COc1ncc(-c2ccc3nc4n(c3c2)C(c2ccccc2)COC4)cn1` (centres unmarked) [T.22], under setting [1], the IC50 lay in the range of 1000 to 10000 nM. Take `Fc1cccc(C2CCc3nc4ccc(-c5cnc(N6CCOCC6)nc5)nc4n32)c1` (centres unmarked) [M.1]: the IC50 under setting [2] is under 1000 nM. On to `COC(=O)C1CCC(Oc2cc(-c3ccc4nc5n(c4n3)[C@@H](c3ccccc3)CC5)ccn2)CC1` (some centres unmarked) [AS.4], for which the IC50 under setting [1] was in the range of 1000 to 10000 nM. For `O=C1NC[C@H]2CN(c3ncc(-c4ccc5nc6n(c5n4)[C@@H](c4ccccc4)CC6)cn3)CCN12` [Example 31, (S)-7-(5-((R)-8-Phenyl-7,8-dihydro-6H-pyrrolo[2′,1′:2,3]imidazo[4,5-b]pyridin-2-yl)pyrimidin-2-yl)hexahydroimidazo[1,5-a]pyrazin-3(2H)-one], under setting [2], the IC50 is under 1000 nM. Regarding `COCCOc1cc(-c2ccc3nc4n(c3n2)[C@@H](c2ccccc2)CC4)ccn1` [BC.1], the IC50 under setting [1] is 1000 to 10000 nM. With `O=C1NCC2CN(c3ncc(-c4ccc5nc6n(c5c4)[C@@H](c4ccccc4)CC6)cn3)CCN12` (stereo partly drawn) [Example 3, 7-(5-((R)-1-Phenyl-2,3-dihydro-1H-benzo[d]pyrrolo[1,2-a]imidazol-7-yl)pyrimidin-2-yl)hexahydroimidazo[1,5-a]pyrazin-3(2H)-one], under setting [2], the IC50 is under 1000 nM. As for `CC(C)(O)c1ncc(-c2ccc3nc4n(c3c2)[C@H](c2ccccc2)CCC4)cn1` [Y.3], the IC50 under setting [1] is 1000 to 10000 nM. Still for that read-out and setting: the value for `COc1ncc(-c2ccc3nc4n(c3c2)C(c2ccccc2)COC4)cc1F` (centres unmarked) [T.1] was 1000 to 10000 nM.

For `O=C1NCC2CN(c3ncc(-c4ccc5nc6n(c5n4)C(c4ccccc4)COC6)cn3)CCN12` (stereo in doubt) [Example 58, (8aS)-7-(5-(9-Phenyl-8,9-dihydro-6H-pyrido[3′,2′:4,5]imidazo[2,1-c][1,4]oxazin-2-yl)pyrimidin-2-yl)hexahydroimidazo[1,5-a]pyrazin-3(2H)-one], the IC50 under setting [2] is under 1000 nM.

For `c1ccc(C2COCc3nc4ccc(-c5cnc(N6CCOCC6)nc5)cc4n32)cc1` (single isomer, unassigned) [Example 21], under setting [2], the IC50 is under 1000 nM. Same read-out and setting: the value for `N#CCOc1ccc(-c2ccc3nc4n(c3c2)C(c2ccccc2)CC4)cc1` (centres unmarked) [A.34] was 1000 to 10000 nM. `COc1ccccc1C1CCc2nc3ccc(-c4cnc(N5CCC(O)CC5)nc4)nc3n21` (centres unmarked) [AD.1]: under setting [1], the IC50 was under 1000 nM.

Turning to `c1ccc(C2OCCc3nc4ccc(-c5cnc(N6CCOCC6)nc5)nn4c32)cc1` (centres unmarked) [Example 56, 2-(2-morpholinopyrimidin-5-yl)-9-phenyl-7,9-dihydro-6H-pyrano[4′,3′:4,5]imidazo[1,2-b]pyridazine], under setting [2], the IC50 was in the range of 1000 to 10000 nM. Regarding `OC1CCN(c2ncc(-c3ccc4nc5n(c4n3)C3(CCOc4ccccc43)COC5)cn2)CC1` (centres unmarked) [BB.2], the IC50 under setting [1] is under 1000 nM.

On to `CC(C)(O)c1ncc(-c2ccc3nc4n(c3n2)C(c2ccccc2)CC4)cn1` (centres unmarked) [L.1], for which the IC50 under setting [2] is under 1000 nM. Consider `c1ccc(C2CCc3nc4ccc(-c5cnn(Cc6cccnc6)c5)cc4n32)cc1` (centres unmarked) [A.21], for which, under setting [2], the IC50 is 1000 to 10000 nM.

As for `c1ccc2c(c1)OCC21COCc2nc3ccc(-c4ccnc(OC5CCOCC5)c4)nc3n21` (centres unmarked) [BG.1], the half-maximal inhibitory concentration (IC50) under setting [1] fell in the range of 1000 to 10000 nM. The same measure, in the same setting: the value for `OC1CCN(c2ncc(-c3ccc4nc5n(c4n3)C(c3ccccc3)COC5)cn2)CC1` (centres unmarked) [AZ.2] was under 1000 nM.

`CC(C)(O)c1ncc(-c2ccc3nc4n(c3c2)C(c2cccc(F)c2)CC4)cn1` (centres unmarked) [B.1]: under setting [2], the IC50 is under 1000 nM. For `CC(C)S(=O)(=O)c1ccc(-c2ccc3nc4n(c3c2)C(c2ccccc2)CC4)cc1` (centres unmarked) [A.33], under setting [2], the IC50 was under 1000 nM. For `OC1CCN(c2ncc(-c3nc4c(cc3F)nc3n4[C@@H](c4ccccc4)CC3)cn2)CC1` [Example 55, (R)-1-(5-(3-fluoro-8-phenyl-7,8-dihydro-6H-pyrrolo[2′,1′:2,3]imidazo[4,5-b]pyridin-2-yl)pyrimidin-2-yl)piperidin-4-ol], the IC50 under setting [2] was under 1000 nM.

Turning to `c1ccc2c(c1)CCC21COCc2nc3ccc(-c4cnc(N5CCCOCC5)nc4)nc3n21` (centres unmarked) [AV.3], the IC50 under setting [1] was under 1000 nM. On to `COCCNC(=O)c1ccc(-c2ccc3nc4n(c3c2)C(c2ccccc2)CC4)cc1` (centres unmarked) [A.39], for which the IC50 under setting [2] is 1000 to 10000 nM.

Consider `OC1CCN(c2ncc(-c3ccc4nc5n(c4n3)C3(CCc4ccccc43)COC5)cn2)CC1` (centres unmarked) [Example 52], for which the IC50 under setting [2] was under 1000 nM.

With `COc1ccccc1C1CCCCc2nc3ccc(-c4cnc(NCC(=O)O)nc4)cn3c21` (centres unmarked) [S.3], the IC50 under setting [1] fell in the range of 1000 to 10000 nM. Same read-out and setting: the value for `c1ccc2c(c1)OCCC21COCc2nc3ccc(-c4cnc(N5CCOCC5)nc4)nc3n21` (centres unmarked) [BA.6] was under 1000 nM; that for `COC(C)(C)CC(=O)N1CC=C(c2ccc3nc4n(c3n2)C2(COC4)COc3ccccc32)CC1` (centres unmarked) [BI.1] was 1000 to 10000 nM; that for `c1ccc([C@H]2COCc3nc4ccc(-c5cnc(N6CCOCC6)nc5)nc4n32)cc1` [AB.1] was under 1000 nM. The same measure, in the same setting: the value for `c1ccc2c(c1)OCCC21COCc2nc3ccc(-c4ccnc(OC5CCOCC5)c4)nc3n21` (centres unmarked) [BA.8] was under 1000 nM. The same measure, in the same setting: in the case of `O=C1NCC2CN(c3ncc(-c4ccc5nc6n(c5c4)C(c4ccccc4Cl)COC6)cn3)CCN12` (centres unmarked) [V.2] it was under 1000 nM; in that of `CC1(O)CN(c2ncc(-c3ccc4nc5n(c4n3)C3(CCOc4ccccc43)COC5)cn2)C1` (centres unmarked) [BB.7], 1000 to 10000 nM. Consider `FC(F)(F)C1CN(c2ncc(-c3ccc4nc5n(c4c3)[C@@H](c3ccccc3)COC5)cn2)CCO1` (some centres unmarked) [G.15], for which the IC50 under setting [2] was in the range of 1000 to 10000 nM. For `c1ccc(C2COCc3nc4ccc(-c5ccc(NCCN6CCOCC6)nc5)cc4n32)cc1` (centres unmarked) [T.28], the IC50 under setting [1] was 10000 to 100000 nM. As for `Cc1cncc(-c2ccc3nc4n(c3c2)C(c2ccccc2)CC4)c1` (centres unmarked) [A.25], the IC50 under setting [2] is 1000 to 10000 nM. For `Cc1ccc(C)c(C2CCc3nc4ccc(-c5cnc(C(C)(C)O)nc5)cc4n32)c1` (centres unmarked) [B.2, 2-(5-(1-(2,5-Dimethylphenyl)-2,3-dihydro-1H-benzo[d]pyrrolo[1,2-a]imidazol-7-yl)pyrimidin-2-yl)propan-2-ol], under setting [2], the IC50 was under 1000 nM.

Turning to `O=C1CN(c2ncc(-c3cnc4nc5n(c4c3)C(c3ccccc3)CCC5)cn2)CCN1` (centres unmarked) [Q.1], the IC50 under setting [2] is 10000 to 100000 nM. Consider `OC1CCC(Oc2cc(-c3ccc4nc5n(c4n3)[C@@H](c3ccccc3)CC5)ccn2)C1` (some centres unmarked) [AQ.1], for which the IC50 under setting [1] is under 1000 nM. Still for that read-out and setting: the value for `OCC1CCCN(c2ncc(-c3ccc4nc5n(c4n3)C(c3ccccc3)COC5)cn2)C1` (centres unmarked) [AZ.4] was under 1000 nM.

In the case of `O[C@@H]1CN(c2ncc(-c3ccc4nc5n(c4c3)[C@@H](c3ccccc3)COC5)cn2)C[C@H]1O` [G.26], the IC50 under setting [2] lay within 10000 to 100000 nM. For the molecule `c1ccc(C2COCc3nc4ccc(-c5cnc(-n6cccn6)nc5)cc4n32)cc1` (centres unmarked) [T.23], the IC50 under setting [1] fell in the range of 1000 to 10000 nM. On to `COc1ccccc1C1CCCc2nc3ccc(-c4cnc(N5CCC(O)CC5)nc4)cn3c21` (centres unmarked) [AJ.1], for which the IC50 under setting [1] was under 1000 nM.
